Patent US20230272016A1, “PEPTIDES FOR IMMUNOTHERAPY” (Second Genome, Inc., priority 2020, published 2023)

Tested on: human T cells
Assay: Human T cell activation assay (anti-CD3 plus peptide, cytokine secretion)
Type: cell-based
Procedure: FIGS. 11 and 12 show 150 peptide variants of the SG-3-0020 1-29 aa N-terminal+middle region, derived from a combinatorial phage display library, were tested for activation potential of human T cells. […] Increase in cytokine secretion was concordant in 3 donors.
For example, PBMCs were obtained from individual human donors.
T-cell activation was also determined as described previously (see above and International Application No. PCT/US2020/012431). […] Separate N-, MID, and C-terminal fragments lose activity. The data support that both N- and middle region are minimally required for binding and activation to T cells.

[1] = Table 11, 150 combinatorial library variants of SEQ ID NO:1
[2] = Table 10, combinatorial library variants of SEQ ID NO:1

WGSAAKGKTHDHWPSGRMRDPPWHDWRVS [SEQ ID NO: 256]
mean_ES_IFN-γ [1]: 0.9254

WSSAAKGKTHDHYGSGRMRDFGWHDWRFS [SEQ ID NO: 274]
mean_ES_IFN-γ [1]: 0.8191

FASAAKGKTHDHWGSGRYRPPPWHDWRGS [SEQ ID NO: 244]
mean_ES_IFN-γ [1]: 0.9882

WTSGAKGKWHDHYGGGRYRDPGWHDWRFS [SEQ ID NO: 280]
mean_ES_IFN-γ [1]: 0.7716

WASGAKGKTHDHNPSGRWRDPGWHDWRGS [SEQ ID NO: 330]
mean_ES_IFN-γ [1]: 0.3705

VTSAAKGKTHDHYPSGRYRPPPWHDWRGR [SEQ ID NO: 310]
mean_ES_IFN-γ [1]: 0.5718

WTSGAKGKWHDHNGGGRMRDPGWHDWRFS [SEQ ID NO: 309]
mean_ES_IFN-γ [1]: 0.5851

VVSTAKGKTHDHYWSGRYRPPPWHDWRAR [SEQ ID NO: 259]
mean_ES_IFN-γ [1]: 0.9101

WSSGAKTKWHDHYGSGRHRDPKWHDWRGS [SEQ ID NO: 19]
mean_ES_IFN-γ [2]: 1.147 | mean_ES_IFN-γ [1]: 1.147

MPSAAKGKTHDHYPSGRMRPPPWHDWRGR [SEQ ID NO: 333]
mean_ES_IFN-γ [1]: 0.3234

MSSGAKTKTHDHYPSGRMRPPPWHDWRAR [SEQ ID NO: 303]
mean_ES_IFN-γ [1]: 0.6184

VVSTAKGKTHDHYPGGRMRPPPWHDWRAR [SEQ ID NO: 251]
mean_ES_IFN-γ [1]: 0.952

MLSAAKGKTHDHYPSGRYRPPPWHDWRAR [SEQ ID NO: 269]
mean_ES_IFN-γ [1]: 0.8464

MPSAAKGKTHDHNGGGRMRPPPWHDWRFS [SEQ ID NO: 311]
mean_ES_IFN-γ [1]: 0.5631

WVSAAKGKWHDHYGSGRMRDPPWHDWWGS [SEQ ID NO: 24]
mean_ES_IFN-γ [2]: 1.104 | mean_ES_IFN-γ [1]: 1.104

WASGAKGKWHDHYGGGRYRDPGWHDWRGS [SEQ ID NO: 20]
mean_ES_IFN-γ [2]: 1.135 | mean_ES_IFN-γ [1]: 1.135

PASGAKGKTHDHYPSGRWRDSGWHDWRFS [SEQ ID NO: 313]
mean_ES_IFN-γ [1]: 0.5536

MVSAAKTKTHDHNGGGRMRPPPWHDWRFS [SEQ ID NO: 258]
mean_ES_IFN-γ [1]: 0.9135

FLSAAKGKTHDHNWGGRMRPPPWHDWRFS [SEQ ID NO: 255]
mean_ES_IFN-γ [1]: 0.935

MLSTAKGKTHDHYWGGRMRPPPWHDWRFS [SEQ ID NO: 292]
mean_ES_IFN-γ [1]: 0.7049

FSSAAKGKWHDHWPGGRYRDPPWHDWRVS [SEQ ID NO: 14]
mean_ES_IFN-γ [2]: 1.215 | mean_ES_IFN-γ [1]: 1.215

MASAAKGKWHDHNPSGRHRDPGWHDWWGS [SEQ ID NO: 288]
mean_ES_IFN-γ [1]: 0.7207

WGSGAKGKTHDHWGSGRWRDPGWHDWRGS [SEQ ID NO: 5]
mean_ES_IFN-γ [2]: 1.324 | mean_ES_IFN-γ [1]: 1.324

SPSGAKTKWHDHNPGGRMRPPPWHDWRAR [SEQ ID NO: 324]
mean_ES_IFN-γ [1]: 0.4459

WPSGAKTKTHDHNWGGRMRDPPWHDWRGS [SEQ ID NO: 339]
mean_ES_IFN-γ [1]: 0.2814

MLSGAKTKTHDHNPSGRMRDPPWHDWRVR [SEQ ID NO: 293]
mean_ES_IFN-γ [1]: 0.7047

VSSGAKGKTHDHYPSGRMRPPPWHDWRFS [SEQ ID NO: 297]
mean_ES_IFN-γ [1]: 0.6662

WTSAAKGKWHDHNGSGRHRDPPWHDWRAR [SEQ ID NO: 289]
mean_ES_IFN-γ [1]: 0.7151

WQSAAKTKTHDHWPGGRMRPPPWHDWRAR [SEQ ID NO: 352]
mean_ES_IFN-γ [1]: −0.2305

VTSTAKGKTHDHNWSGRYRPPPWHDWRAR [SEQ ID NO: 9]
mean_ES_IFN-γ [2]: 1.28 | mean_ES_IFN-γ [1]: 1.28

MPSAAKGKWHDHYPSGRMRPPPWHDWRAR [SEQ ID NO: 12]
mean_ES_IFN-γ [2]: 1.216 | mean_ES_IFN-γ [1]: 1.216

PLSAAKTKWHDHYGGGRMRPPPWHDWRFS [SEQ ID NO: 265]
mean_ES_IFN-γ [1]: 0.8534

VPSAAKGKWHDHNGSGRMRDPGWHDWRFS [SEQ ID NO: 348]
mean_ES_IFN-γ [1]: −0.009349

SPSGAKGKTHDHYPSGRMRPPPWHDWRFS [SEQ ID NO: 261]
mean_ES_IFN-γ [1]: 0.8871

MSSGAKGKWHDHYPSGRMRPPPWHDWRFS [SEQ ID NO: 3]
mean_ES_IFN-γ [2]: 1.384 | mean_ES_IFN-γ [1]: 1.384

MSSGAKGKWHDHNWGGRMRDPGWHDWWGS [SEQ ID NO: 301]
mean_ES_IFN-γ [1]: 0.6348

WSSAAKTKWHDHNPGGRYRPPPWHDWRFR [SEQ ID NO: 332]
mean_ES_IFN-γ [1]: 0.3258

MPSGAKGKTHDHYGGGRMRPPPWHDWRFS [SEQ ID NO: 13]
mean_ES_IFN-γ [2]: 1.216 | mean_ES_IFN-γ [1]: 1.216

FVSGAKGKWHDHWPSGRWRDPPWHDWRAS [SEQ ID NO: 10]
mean_ES_IFN-γ [2]: 1.26 | mean_ES_IFN-γ [1]: 1.26

WVSAAKGKTHDHNGGGRWRDPGWHDWRFS [SEQ ID NO: 336]
mean_ES_IFN-γ [1]: 0.3032

MLSTAKGKTHDHYGGGRMRPPPWHDWRFS [SEQ ID NO: 249]
mean_ES_IFN-γ [1]: 0.9561

MASGAKGKWHDHYGGGRMRDPGWHDWRFS [SEQ ID NO: 342]
mean_ES_IFN-γ [1]: 0.2325

WQSAAKTKTHDHWPSGRYRPPPWHDWRAS [SEQ ID NO: 294]
mean_ES_IFN-γ [1]: 0.6837

PSSAAKGKTHDHYPGGRYRDPGWHDWRGR [SEQ ID NO: 343]
mean_ES_IFN-γ [1]: 0.2141

MGSGAKGKTHDHWPSGRMRPPPWHDWRVS [SEQ ID NO: 268]
mean_ES_IFN-γ [1]: 0.8466

WASAAKGKTHDHYGGGRMRPPPWHDWRAR [SEQ ID NO: 323]
mean_ES_IFN-γ [1]: 0.4505

MGSAAKGKWHDHYGSGRMRPPPWHDWRVR [SEQ ID NO: 262]
mean_ES_IFN-γ [1]: 0.8865

WGSGAKTKWHDHNWSGRMRPPPWHDWRFS [SEQ ID NO: 354]
mean_ES_IFN-γ [1]: −0.315

MPSTAKGKWHDHNPSGRMRPPPWHDWRGR [SEQ ID NO: 277]
mean_ES_IFN-γ [1]: 0.7934

WSSAAKGKTHDHYPSGRHRPPPWHDWRVS [SEQ ID NO: 253]
mean_ES_IFN-γ [1]: 0.9469

MASAAKTKWHDHYPSGRMRPPPWHDWRAR [SEQ ID NO: 27]
mean_ES_IFN-γ [2]: 1.075 | mean_ES_IFN-γ [1]: 1.075

FSSAAKTKWHDHYGSGRYRPPPWHDWRFS [SEQ ID NO: 355]
mean_ES_IFN-γ [1]: −0.4086

FVSAAKGKTHDHYPSGRYRPPPWHDWRAR [SEQ ID NO: 25]
mean_ES_IFN-γ [2]: 1.088 | mean_ES_IFN-γ [1]: 1.088

WGSAAKGKTHDHWPSGRHRDPPWHDWRVR [SEQ ID NO: 31]
mean_ES_IFN-γ [2]: 1.044 | mean_ES_IFN-γ [1]: 1.044

PASAAKGKTHDHWPSGRHRDPPWHDWRGS [SEQ ID NO: 353]
mean_ES_IFN-γ [1]: −0.2788

MPSAAKGKWHDHYPGGRMRDPKWHDWRFS [SEQ ID NO: 8]
mean_ES_IFN-γ [2]: 1.282 | mean_ES_IFN-γ [1]: 1.282

MGSGAKTKWHDHWPSGRMRPPPWHDWRFS [SEQ ID NO: 284]
mean_ES_IFN-γ [1]: 0.7374

MPSAAKGKWHDHYGSGRYRPPPWHDWRVR [SEQ ID NO: 326]
mean_ES_IFN-γ [1]: 0.43

MGSAAKGKWHDHYPGGRHRDPPWHDWRAS [SEQ ID NO: 319]
mean_ES_IFN-γ [1]: 0.5086

VSSGAKTKTHDHNPSGRMRDFKWHDWRGS [SEQ ID NO: 350]
mean_ES_IFN-γ [1]: −0.1153

MASGAKGKTHDHNWSGRMRPPPWHDWRGR [SEQ ID NO: 245]
mean_ES_IFN-γ [1]: 0.9801

MGSGAKTKTHDHYPGGRYRPPPWHDWRVS [SEQ ID NO: 276]
mean_ES_IFN-γ [1]: 0.8105

FGSAAKGKTHDHWPSGRHRDPGWHDWRFS [SEQ ID NO: 23]
mean_ES_IFN-γ [2]: 1.129 | mean_ES_IFN-γ [1]: 1.129

MSSGAKGKWHDHYGSGRHRPPPWHDWRVR [SEQ ID NO: 243]
mean_ES_IFN-γ [1]: 0.9926

WPSAAKGKTHDHYPGGRYRPPPWHDWRVR [SEQ ID NO: 295]
mean_ES_IFN-γ [1]: 0.6782

MGSGAKGKTHDHNWGGRHRDPGWHDWWVS [SEQ ID NO: 285]
mean_ES_IFN-γ [1]: 0.7319

FASAAKGKTHDHYWSGRYRPPPWHDWRAS [SEQ ID NO: 33]
mean_ES_IFN-γ [2]: 1.036 | mean_ES_IFN-γ [1]: 1.036

WPSGAKGKWHDHYPGGRMRPPPWHDWRFS [SEQ ID NO: 4]
mean_ES_IFN-γ [2]: 1.351 | mean_ES_IFN-γ [1]: 1.351

WASGAKGKTHDHWPGGRHRDPPWHDWRVS [SEQ ID NO: 271]
mean_ES_IFN-γ [1]: 0.8431

MGSAAKTKWHDHYPGGRMRPPPWHDWRFS [SEQ ID NO: 337]
mean_ES_IFN-γ [1]: 0.2836

FVSTAKGKTHDHNWSGRMRPPPWHDWRGR [SEQ ID NO: 248]
mean_ES_IFN-γ [1]: 0.9668

MASAAKGKTHDHYPGGRMRPPPWHDWRAS [SEQ ID NO: 252]
mean_ES_IFN-γ [1]: 0.9483

VLSTAKGKTHDHYPGGRMRPPPWHDWRAR [SEQ ID NO: 257]
mean_ES_IFN-γ [1]: 0.918

VTSAAKGKWHDHWPSGRYRDPPWHDWRVS [SEQ ID NO: 308]
mean_ES_IFN-γ [1]: 0.588

MGSAAKGKTHDHYPSGRMRPPPWHDWRGS [SEQ ID NO: 349]
mean_ES_IFN-γ [1]: −0.09755

PTSAAKGKTHDHYPGGRYRDPPWHDWRAS [SEQ ID NO: 356]
mean_ES_IFN-γ [1]: −0.5055

VHSAAKTKTHDHWGSGRMRDPPWHDWRGS [SEQ ID NO: 346]
mean_ES_IFN-γ [1]: 0.04292

FASGAKGKTHDHNWGGRYRDPGWHDWRAS [SEQ ID NO: 281]
mean_ES_IFN-γ [1]: 0.7548
